“And” between values parts separate entries of the source, which are not always exact repeats. Equal values may be shown once. Read-outs that look alike come from different tables or passages of the source.
How the values were obtained:
[1] = target: T1, purified recombinant human PARP (Homo sapiens, UniProt P09874); assay: PARP enzyme assay (IC50); format: biochemical; settings: approximate IC50 values, [3H]NAD
T1 construct: purchased Trevigan (Gaithersburg, Md.)
Protocol: The reaction is initiated by adding enzyme and incubating the mixture at 25° C. After 2 minutes of incubation, the reaction is terminated by adding 500 microliters of ice cold 30% (w/v) trichloroacetic acid. The precipitate formed is transferred onto a glass fiber filter Packard Unifilter-GF/C) and washed three times with 70% ethanol. After the filter is dried, the radioactivity is determined by scintillation counting.

[2] = tested on: infarct size caused by ischemia and reperfusion of the heart; settings: rabbits, cited from earlier work
[3] = tested on: MSU crystal induced neutrophil migration; assay: MSU crystal-induced neutrophil recruitment (peritonitis, gout model); format: in vivo, Swiss albino mice
Protocol: Male outbread Swiss albino mice (20–22 g body weight) were purchased from Banton and Kingsman (T.O. stain; Hull, Humberside) and maintained on a standard chow pellet diet with tap water ad libitum and a 12:00 h light/dark cycle. All animals were housed for 1 week prior to experimentation to allow body weight to reach 28–30 g.
1,11b-dihydrobenzopyrano[4,3,2-de]isoquinolin-1-one, as an example PARP inhibitor, was dissolved in 100% DMSO at room temperature at a concentration of 45 mg in 2 ml. The compound was then injected into the peritoneal cavity, so as each mouse received a single dose corresponding to 45 mg/2 ml/kg (e.g. 60 μl for a mouse of 30 g). Control mice received DMSO at 2 ml/kg i.p. A third group of mice which were left untreated were added to control for potential effects of the vehicle. The study involved therefore, the following three groups: group A, untreated mice, n=6, group B, DMSO-treated mice, n=8, and group C, mice treated with 1,11b-dihydrobenzopyrano[4,3,2-de]isoquinolin-1-one, n=8.
MSU crystal-induced neutrophil recruitment was tested as follows. In all cases, mice were treated 1 h after the treatment noted above, with MSU crystals. A homogenous suspension of MSU crystals was obtained by a 30 min rotation. Peritonitis was induced by injection of 3 mg MSU crystals in 0.5 ml PBS (0.1 M, pH 7.4), and the recruitment of neutrophils into the cavity evaluated at the 6 h time point (Getting et al., 1997, J. Pharmacol. Exp. Ther. 283: 123–130). […]
An aliquot (100 μl) of the lavage fluid was then diluted 1:10 in Turk's solution (0.01% crystal violet in 3% acetic acid). The samples were then vortexed and 10 μl of the stained cell solution were placed in a Neubauer haematocymometer and neutrophils numbers counted using a light microscope (Olympus B061). […]
Data are shown for single mice, and also shown as mean±S.E. of (n) mice per group. Statistical differences were determined by ANOVA, plus Bonferroni test A P value<0.05 was taken as significant.

PARP = PARP (Homo sapiens, UniProt P09874); settings: read-out: IC50 for inhibiting PARP; reported by Suto et al.; cited from earlier work
focal cerebral ischemia = assay: Focal cerebral ischemia (MCA cauterization with temporary bilateral CCA occlusion), infarct volume; format: in vivo, male Long-Evans rats; settings: 24 h, mean±SD
Protocol: Focal cerebral ischemia is produced by cauterization of the right distal MCA (middle cerebral artery) with bilateral temporary common carotid artery occlusion in male Long-Evans rats for 90 minutes. All procedures performed on the animals are approved by the University Institutional Animal Care and Use Committee of the University of Pennsylvania. A total of 42 rats (weights: 230–340 g) obtained from Charles River were used in this study. The animals fasted overnight with free access to water prior to the surgical procedure.
Two hours prior to MCA occlusion, varying amounts (control, n=14; 5 mg/kg, n=7; 10 mg/kg, n=7; 20 mg/kg, n=7; and 40 mg/kg, n=7) of the compound, 3,4-dihydro-5-[4-(1-piperidinyl)-butoxy]-1(2H)-isoquinolinone (“DPQ”) were dissolved in dimethyl sulfoxide (DMSO) using a sonicator. A volume of 1.28 ml/kg of the resulting solution was injected intraperitoneally into […].
Focal cerebral ischemia was produced by cauterization of the distal portion of the right MCA with bilateral temporary common carotid artery (CCA) occlusion by the procedure of Chen et al., “A Model of Focal Ischemic Stroke in the Rat: Reproducible Extensive Cortical Infarction”, Stroke 17:738–43 (1986) and/or Liu et al., “Polyethylene Glycol-conjugated Superoxide Dismutase and Catalase Reduce Ischemic Brain Injury”, Am. J. Physiol. 256:H589–93 (1989), both of which are hereby incorporated by reference.
Specifically, bilateral CCA's were isolated, and loops made from polyethylene (PE-10) catheter were carefully passed around the CCA's for later remote occlusion. The incision made previously for placement of the laser doppler probe was extended to allow observation of the rostral end of the zygomatic arch at the fusion point using a dental drill, and the dura mater overlying the MCA was cut. […] The burr hole was covered with a small piece of Gelform, and the wound was sutured to maintain the brain temperature within the normal or near-normal range.
After 90 minutes of occlusion, the carotid loops were released, the tail arterial catheter was removed, and all of the wounds were sutured. Gentamicin sulfate (10 mg/ml) was topically applied to the wounds to prevent infection. […]
Two hours after MCA occlusion, the animals were given the same doses of the PARP inhibitor as in the pre-treatment. […] To avoid artifacts due to edema, the damaged area was calculated by subtracting the area of the normal tissue in the hemisphere ipsilateral to the stroke from the area of the hemisphere contralateral to the stroke, by the method of Swanson et al., “A Semiautomated Method for Measuring Brain Infarct Volume”, J. Cereb. […] The total volume of infarction was calculated by summation of the damaged volume of the brain slices.

T1 sequence (P09874 whole entry): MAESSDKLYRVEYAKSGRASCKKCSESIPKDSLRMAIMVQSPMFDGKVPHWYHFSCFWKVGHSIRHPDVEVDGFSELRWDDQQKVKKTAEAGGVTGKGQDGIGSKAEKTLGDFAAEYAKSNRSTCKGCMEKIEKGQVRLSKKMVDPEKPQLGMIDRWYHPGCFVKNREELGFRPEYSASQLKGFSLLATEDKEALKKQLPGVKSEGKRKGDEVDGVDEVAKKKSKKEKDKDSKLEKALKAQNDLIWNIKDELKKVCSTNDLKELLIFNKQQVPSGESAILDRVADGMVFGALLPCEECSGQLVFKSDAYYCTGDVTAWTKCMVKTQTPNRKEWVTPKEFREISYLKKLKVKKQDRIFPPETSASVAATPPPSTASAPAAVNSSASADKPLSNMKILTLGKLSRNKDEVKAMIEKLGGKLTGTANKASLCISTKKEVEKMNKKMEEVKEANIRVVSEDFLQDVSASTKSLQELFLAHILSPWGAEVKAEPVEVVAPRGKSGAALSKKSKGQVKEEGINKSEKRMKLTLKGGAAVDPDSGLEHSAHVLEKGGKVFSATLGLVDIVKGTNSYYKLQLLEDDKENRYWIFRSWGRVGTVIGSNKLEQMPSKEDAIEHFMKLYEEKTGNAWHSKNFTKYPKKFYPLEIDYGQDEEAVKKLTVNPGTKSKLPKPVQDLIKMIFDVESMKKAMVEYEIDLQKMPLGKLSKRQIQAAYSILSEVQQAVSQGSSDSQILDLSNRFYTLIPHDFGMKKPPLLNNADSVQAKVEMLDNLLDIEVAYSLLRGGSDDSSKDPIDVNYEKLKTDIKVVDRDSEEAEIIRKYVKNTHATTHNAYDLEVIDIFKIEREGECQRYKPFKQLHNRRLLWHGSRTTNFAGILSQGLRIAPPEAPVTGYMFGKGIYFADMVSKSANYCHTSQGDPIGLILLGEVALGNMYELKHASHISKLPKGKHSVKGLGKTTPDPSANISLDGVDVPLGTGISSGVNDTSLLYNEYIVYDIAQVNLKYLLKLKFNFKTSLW
Sequence of PARP (P09874 whole entry): as above

SMILES | IC50 ([1]; read-out: IC50) | other results
O=C1NN=Cc2cn(Cc3ccccc3)c3cccc1c23 | 13 µM | –
O=C1NN=C(Cc2ccccc2)c2c[nH]c3cccc1c23 | 0.064 µM | –
O=C1NCC(c2ccc(F)cc2)c2c[nH]c3cccc1c23 (stereo not drawn) | 0.427 µM | –
Nc1ccc(C2CNC(=O)c3cccc4[nH]cc2c34)cc1 (stereo not drawn) | 0.172 µM | –
O=C1NCC(c2ccccc2)c2c[nH]c3cccc1c23 (stereo not drawn) | 0.176 µM | –
O=C1CNC(=O)c2cccc3[nH]cc1c23 | 0.035 µM | –
Cn1cc2c3c(cccc31)C(=O)NCC2=O | 0.028 µM | –
Cn1c(-c2ccccc2)c2c3c(cccc31)C(=O)NCC2=O | 0.058 µM | –
Cn1cc2c3c(cccc31)C(=O)NCC2O (stereo not drawn) | 0.79 µM | –
COC1CNC(=O)c2cccc3c2c1cn3C (stereo not drawn) | 4.6 µM | –
O=C1NC=Cc2c[nH]c3cccc1c23 | 0.161 µM | –
O=C1NC=C(Br)c2c[nH]c3cccc1c23 | 0.061 µM | –
Cc1cccc(-c2nc3cccc4c3n2CCNC4=O)c1 | 0.097 µM | –
Cc1ccc(-c2nc3cccc4c3n2CCNC4=O)cc1 | 0.11 µM | –
O=C1NCCn2c(C3CCCCC3)nc3cccc1c32 | 0.204 µM | –
O=C1NCCn2c(-c3ccc4ccccc4c3)nc3cccc1c32 | 0.032 µM | –
O=C1NCCn2c(-c3ccc(Br)cc3)nc3cccc1c32 | 0.054 µM | –
O=C1NCCn2c(-c3ccc(F)cc3)nc3cccc1c32 | 0.201 µM | –
O=C1NCCn2c(O)nc3cccc1c32 | 1.4 µM | –
Oc1cccc2c(O)nccc12 [1,5-dihydroxyisoquinoline] | – | reduction in infarct size ([2]; 1 mg/kg): 38–48%
O=C1N=Cc2cccc3c2C1c1ccccc1O3 (stereo not drawn) [1,11b-dihydrobenzopyrano[4,3,2-de]isoquinolin-1-one] | – | inhibition of cell influx vs. the vehicle group ([3]; 45 mg/kg i.p., 6 h): 55%; Neutrophil Numbers (single mice) ([3]; group C, 45 mg/kg i.p. 1 h prior to 3 mg MSU crystals, 6 h time-point, one value per mouse, 45 mg/kg): 2.4 10^6 per mouse (2×) and 3.0 10^6 per mouse (2×) and 2.7 10^6 per mouse and 2.1 10^6 per mouse (2×) and 5.1 10^6 per mouse; Neutrophils (10^6 per mouse) ([3]; group C, 45 mg/kg i.p., MSU crystals (3 mg), 6 h, mean ± S.E. of (n) mice, vehicle 6.30 ± 0.33): 2.85 ± 0.34 (8)* 10^6 per mouse
O=C1NCCc2c(OCCCCN3CCCCC3)cccc21 [3,4-dihydro-5-[4-(1-piperidinyl)butoxy]-1(2H)-isoquinolinone] | – | IC50 (PARP): 40 nM
NC(=O)c1cccc(N)c1 [3-amino-benzamide] | – | reduction in infarct size in the heart ([2]; single injection 10 mg/kg, one minute before occlusion or before reperfusion): 32–42%
O=C1NCCc2c(OCCCCN3CCCCC3)cccc21 [DPQ, 3,4-dihydro-5-[4-(1-piperidinyl)-butoxy]-1(2H)-isoquinolinone] | – | damaged volume (infarct volume) (focal cerebral ischemia; 5 mg/kg i.p. 2 h before and 2 h after MCA occlusion, control 165.2±34.0): 106.7±23.2 mm^3; damaged volume (infarct volume) (focal cerebral ischemia; 10 mg/kg i.p. 2 h before and 2 h after MCA occlusion, control 165.2±34.0): 76.4±16.8 mm^3; damaged volume (infarct volume) (focal cerebral ischemia; 20 mg/kg i.p. 2 h before and 2 h after MCA occlusion, control 165.2±34.0): 110.2±42.0 mm^3; damaged volume (infarct volume) (focal cerebral ischemia; 40 mg/kg i.p. 2 h before and 2 h after MCA occlusion, not significant vs control): 135.6±44.8 mm^3
O=C1NN=C(CN2CCN(c3ccccn3)CC2)c2c[nH]c3cccc1c23 [drawing 105] | 0.025 µM | –
O=C1NN=C(CN2CCN(c3ccccn3)CC2)c2c[nH]c3cccc1c23 [drawing 106] | 0.037 µM | –
CN(Cc1ccccc1)Cc1nc2cccc3c2n1CCNC3=O [drawing 162] | – | IC50 ([1]; IC50 (μM)): 0.088 µM
CN(Cc1ccccc1)Cc1nc2cccc3c2n1CCNC3=O [drawing 179] | – | IC50 ([1]; IC50 (μM)): 0.166 µM
